The text below walks through data of ChEMBL document CHEMBL1201862, “PubChem BioAssay data set” (2004).

Calls of active or inactive are those of the source. Bounds are passed on as bounds.

One assay deals with Perilipin-1/ABHD5 (Homo sapiens, UniProt O60240+Q8WTS1). The assay is described as follows: Luminescence-based biochemical high throughput dose response assay for inhibitors of the interaction of the lipase co-activator protein, abhydrolase domain containing 5 (ABHD5) with perilipin-1 (PLIN1) (2K validation set). [Related pubchem assays (depositor defined):AID493027, AID493057].

Assay [1] concerns the target 1-acylglycerol-3-phosphate O-acyltransferase ABHD5/Perilipin-5 (Homo sapiens, UniProt Q00G26+Q8WTS1). Description: Luminescence-based biochemical high throughput dose response assay for inhibitors of the interaction of the lipase co-activator protein, abhydrolase domain containing 5 (ABHD5) with perilipin-5 (MLDP; PLIN5) (2K validation set). [Related pubchem assays (depositor defined):AID493035, AID493241].

The target in assay [2] is T1, Type-1 angiotensin II receptor (Homo sapiens, UniProt P30556).
T1 sequence (P30556 whole entry): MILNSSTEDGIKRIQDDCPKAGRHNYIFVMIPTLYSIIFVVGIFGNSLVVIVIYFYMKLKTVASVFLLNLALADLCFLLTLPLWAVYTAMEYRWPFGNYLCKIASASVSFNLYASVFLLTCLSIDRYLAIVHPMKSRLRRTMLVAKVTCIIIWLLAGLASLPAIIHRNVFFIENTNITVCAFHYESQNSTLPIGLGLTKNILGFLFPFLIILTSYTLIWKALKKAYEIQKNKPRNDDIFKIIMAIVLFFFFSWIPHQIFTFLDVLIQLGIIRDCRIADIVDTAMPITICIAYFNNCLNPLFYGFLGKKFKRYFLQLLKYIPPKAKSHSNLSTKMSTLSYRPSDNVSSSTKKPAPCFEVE
The assay is described as follows: agonist activity at AGTR1 – cell-based, uHTS hits, selectivity assay for APJ receptor agonist project, dose response (AID 488865).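 Further: beta-arrestin recruitment to AT1 measured by enzyme fragment complementation luminescence.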 It counts as functional.

In assay [3] the test system is Vero. Description: antiviral activity against WNV, CPE read-out – cell-based (AID 2419). It counts as functional. The settings on record: Chlorocebus sabaeus.
Assay [4] can be described thus: A Cell Based Assay for the Identification of Probe candidate Compounds with Anti- Venezuelan Equine Encephalitis virus. [Related pubchem assays: 2409, 2419, 1621, 2238, 2405, 2024, 2065, 2402, 2414, 1635, 1650, 2244 ]. The assay is classed as functional.
Assay [5] deals with Vero. Description: Vero cell viability after compound exposure – synthesized analogs, set II, cytotoxicity control for West Nile virus antiviral project, SAR follow-up (AID 2402). It counts as functional. The settings on record: Chlorocebus sabaeus.
In assay [6] the test system is Vero. Description: host cell viability loss, Vero E6 – synthesized analogs, cytotoxicity control for West Nile virus antiviral project, SAR follow-up (AID 2244). It counts as functional. The conditions noted are these: Chlorocebus sabaeus.
For assay [7], the system named is Vero. Description: Vero 76 cell viability after compound exposure – Vero 76 cells, synthesized analogs, cytotoxicity control for West Nile virus antiviral project, SAR follow-up (AID 2414). It counts as functional. The conditions noted are these: Chlorocebus sabaeus.
In assay [8] the test system is Vero. Description: antiviral protection of cells from WNV – synthesized analogs, SAR follow-up (AID 2238). The assay is classed as functional, cell-based. The settings on record: Chlorocebus sabaeus.
In the next assay the target is Large T antigen (Simian virus 40, UniProt P03070). The assay is described as follows: A confirmatory biochemical assay using the ADP-Hunter methodology, purified TAg, and ATP to quantify activity of synthesized compounds that inhibit the ATPase activity of Tag (3). [Related pubchem assays (depositor defined):AID1903, AID1909, AID2102, AID2501, AID2615, AID2775, AID435001, AID449729]. Also on record: species or system Betapolyomavirus macacae.

The target in assay [9] is Mannose-6-phosphate isomerase (Homo sapiens, UniProt P34949). Description: MPI enzyme activity inhibition – biochemical, fluorescence intensity, coupled assay, primary screen (AID 1209).
The target in another assay is CAAX prenyl protease 2 (Saccharomyces cerevisiae S288c, UniProt Q03530). The assay is classed as biochemical.
Assay [10] deals with T2, Kappa-type opioid receptor (Homo sapiens, UniProt P41145). The assay is classed as functional.
Assay [11] addresses T3, Delta-type opioid receptor (Homo sapiens, UniProt P41143). The assay is described as follows: HTS Image-Based Screen for Antagonists of the DOR Receptor. [Related pubchem assays (depositor defined):AID1777, AID1785, AID1786, AID2133]. The assay is classed as functional.
For assay [12], the target named is T2, Kappa-type opioid receptor. It counts as functional. The source holds these as a separate data set.
The next assay deals with Mu-type opioid receptor (Homo sapiens, UniProt P35372). The assay is described as follows: HTS Image-Based Screen for Agonists of the MOR Receptor. [Related pubchem assays (depositor defined):AID1777, AID1785, AID1786, AID2133]. The assay is classed as functional.
Assay [13] deals with T2, Kappa-type opioid receptor. It counts as functional. The source holds these as a separate data set.
Assay [14] addresses T3, Delta-type opioid receptor. The assay is described as follows: HTS Image-Based Screen for Agonists of the DOR Receptor. [Related pubchem assays (depositor defined):AID1777, AID1786, AID2133]. It counts as functional.

T2 sequence (P41145 whole entry): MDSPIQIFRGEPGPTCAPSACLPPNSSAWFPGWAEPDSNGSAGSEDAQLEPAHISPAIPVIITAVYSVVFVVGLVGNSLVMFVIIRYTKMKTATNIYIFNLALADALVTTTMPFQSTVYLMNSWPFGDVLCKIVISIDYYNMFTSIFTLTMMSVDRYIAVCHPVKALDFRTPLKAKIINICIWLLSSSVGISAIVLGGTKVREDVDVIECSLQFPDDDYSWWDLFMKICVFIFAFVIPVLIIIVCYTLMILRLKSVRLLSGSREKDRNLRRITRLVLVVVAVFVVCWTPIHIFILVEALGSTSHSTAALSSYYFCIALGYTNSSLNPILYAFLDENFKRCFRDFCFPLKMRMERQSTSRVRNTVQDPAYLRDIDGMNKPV
T3 sequence (P41143 whole entry): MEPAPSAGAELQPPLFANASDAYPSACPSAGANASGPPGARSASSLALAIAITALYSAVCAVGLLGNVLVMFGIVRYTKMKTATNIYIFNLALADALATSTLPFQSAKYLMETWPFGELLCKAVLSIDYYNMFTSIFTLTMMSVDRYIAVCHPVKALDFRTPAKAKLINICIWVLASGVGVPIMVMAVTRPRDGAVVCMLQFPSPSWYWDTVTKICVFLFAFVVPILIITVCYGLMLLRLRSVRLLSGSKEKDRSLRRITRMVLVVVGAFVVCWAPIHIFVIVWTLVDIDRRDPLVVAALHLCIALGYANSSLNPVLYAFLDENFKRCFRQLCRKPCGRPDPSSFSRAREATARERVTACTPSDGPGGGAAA
Sequence of Mu-type opioid receptor (P35372 whole entry): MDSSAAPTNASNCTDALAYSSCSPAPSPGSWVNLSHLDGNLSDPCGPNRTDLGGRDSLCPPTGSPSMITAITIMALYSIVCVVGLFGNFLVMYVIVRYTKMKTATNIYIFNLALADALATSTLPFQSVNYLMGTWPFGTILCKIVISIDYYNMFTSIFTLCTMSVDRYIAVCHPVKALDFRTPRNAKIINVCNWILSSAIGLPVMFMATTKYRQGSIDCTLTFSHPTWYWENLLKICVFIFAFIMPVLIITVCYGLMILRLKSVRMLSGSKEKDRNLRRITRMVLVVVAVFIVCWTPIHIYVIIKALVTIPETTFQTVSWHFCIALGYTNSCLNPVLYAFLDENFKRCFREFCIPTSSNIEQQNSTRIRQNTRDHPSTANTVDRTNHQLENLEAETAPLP
Sequence of Mannose-6-phosphate isomerase (P34949 whole entry): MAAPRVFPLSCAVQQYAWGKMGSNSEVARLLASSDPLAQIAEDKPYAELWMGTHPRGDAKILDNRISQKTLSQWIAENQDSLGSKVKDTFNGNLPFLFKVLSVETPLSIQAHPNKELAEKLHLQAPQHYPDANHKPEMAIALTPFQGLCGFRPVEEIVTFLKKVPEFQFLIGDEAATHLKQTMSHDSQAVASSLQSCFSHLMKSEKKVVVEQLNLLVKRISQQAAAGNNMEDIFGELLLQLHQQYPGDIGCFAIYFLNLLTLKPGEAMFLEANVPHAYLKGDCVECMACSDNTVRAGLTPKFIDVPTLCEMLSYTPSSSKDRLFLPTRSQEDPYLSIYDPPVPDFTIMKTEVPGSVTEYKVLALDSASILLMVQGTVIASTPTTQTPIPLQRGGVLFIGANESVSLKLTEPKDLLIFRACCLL
Sequence of CAAX prenyl protease 2 (Q03530 whole entry): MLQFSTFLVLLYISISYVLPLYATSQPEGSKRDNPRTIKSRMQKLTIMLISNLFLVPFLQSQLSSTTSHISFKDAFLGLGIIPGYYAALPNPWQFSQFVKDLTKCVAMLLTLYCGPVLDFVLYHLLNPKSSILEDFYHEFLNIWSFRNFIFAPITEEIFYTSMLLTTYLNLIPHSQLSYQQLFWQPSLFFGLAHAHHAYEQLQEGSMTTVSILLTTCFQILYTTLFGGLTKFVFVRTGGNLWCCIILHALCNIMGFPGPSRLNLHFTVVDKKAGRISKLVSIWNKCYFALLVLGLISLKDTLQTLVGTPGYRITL
Sequence of 1-acylglycerol-3-phosphate O-acyltransferase ABHD5/Perilipin-5 (Q00G26 whole entry, the tested form may be a part): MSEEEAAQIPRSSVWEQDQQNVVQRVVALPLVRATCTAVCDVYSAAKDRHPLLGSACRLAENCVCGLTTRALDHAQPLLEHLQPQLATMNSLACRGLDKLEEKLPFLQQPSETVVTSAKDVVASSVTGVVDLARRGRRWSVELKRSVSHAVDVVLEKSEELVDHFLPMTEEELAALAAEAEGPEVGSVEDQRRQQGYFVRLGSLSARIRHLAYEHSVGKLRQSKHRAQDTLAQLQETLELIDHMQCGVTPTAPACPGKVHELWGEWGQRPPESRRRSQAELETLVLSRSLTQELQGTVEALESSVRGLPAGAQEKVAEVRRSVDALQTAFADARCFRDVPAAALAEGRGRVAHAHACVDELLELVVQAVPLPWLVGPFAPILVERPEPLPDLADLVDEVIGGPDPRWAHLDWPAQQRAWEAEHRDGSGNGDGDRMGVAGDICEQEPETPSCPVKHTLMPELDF
Sequence of 1-acylglycerol-3-phosphate O-acyltransferase ABHD5/Perilipin-5 (Q8WTS1 whole entry, the tested form may be a part): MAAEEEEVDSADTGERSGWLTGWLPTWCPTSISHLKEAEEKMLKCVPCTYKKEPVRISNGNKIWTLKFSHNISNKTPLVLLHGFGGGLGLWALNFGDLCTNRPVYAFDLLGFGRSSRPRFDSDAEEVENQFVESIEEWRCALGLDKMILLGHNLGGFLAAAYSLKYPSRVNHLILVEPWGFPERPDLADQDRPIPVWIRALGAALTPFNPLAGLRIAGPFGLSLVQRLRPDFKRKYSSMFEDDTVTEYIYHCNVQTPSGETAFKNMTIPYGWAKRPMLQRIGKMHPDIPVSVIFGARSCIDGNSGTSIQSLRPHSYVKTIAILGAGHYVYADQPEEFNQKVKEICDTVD
Sequence of Perilipin-1/ABHD5 (Q8WTS1 whole entry, the tested form may be a part): as above
Sequence of Perilipin-1/ABHD5 (O60240 whole entry, the tested form may be a part): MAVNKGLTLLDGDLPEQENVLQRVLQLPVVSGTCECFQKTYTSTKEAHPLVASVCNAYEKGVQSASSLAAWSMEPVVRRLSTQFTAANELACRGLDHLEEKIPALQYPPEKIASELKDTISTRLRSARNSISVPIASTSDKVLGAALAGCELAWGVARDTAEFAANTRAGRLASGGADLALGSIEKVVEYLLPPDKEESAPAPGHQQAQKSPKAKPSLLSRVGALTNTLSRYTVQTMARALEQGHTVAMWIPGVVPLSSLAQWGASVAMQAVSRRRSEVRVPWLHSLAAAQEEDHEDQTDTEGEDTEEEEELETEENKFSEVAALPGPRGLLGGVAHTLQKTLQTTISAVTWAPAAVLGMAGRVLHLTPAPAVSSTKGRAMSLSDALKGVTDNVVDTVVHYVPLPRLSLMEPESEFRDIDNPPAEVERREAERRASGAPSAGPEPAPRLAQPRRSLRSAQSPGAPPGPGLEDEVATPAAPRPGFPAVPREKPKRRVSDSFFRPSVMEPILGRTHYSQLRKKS
Sequence of Large T antigen (P03070 whole entry): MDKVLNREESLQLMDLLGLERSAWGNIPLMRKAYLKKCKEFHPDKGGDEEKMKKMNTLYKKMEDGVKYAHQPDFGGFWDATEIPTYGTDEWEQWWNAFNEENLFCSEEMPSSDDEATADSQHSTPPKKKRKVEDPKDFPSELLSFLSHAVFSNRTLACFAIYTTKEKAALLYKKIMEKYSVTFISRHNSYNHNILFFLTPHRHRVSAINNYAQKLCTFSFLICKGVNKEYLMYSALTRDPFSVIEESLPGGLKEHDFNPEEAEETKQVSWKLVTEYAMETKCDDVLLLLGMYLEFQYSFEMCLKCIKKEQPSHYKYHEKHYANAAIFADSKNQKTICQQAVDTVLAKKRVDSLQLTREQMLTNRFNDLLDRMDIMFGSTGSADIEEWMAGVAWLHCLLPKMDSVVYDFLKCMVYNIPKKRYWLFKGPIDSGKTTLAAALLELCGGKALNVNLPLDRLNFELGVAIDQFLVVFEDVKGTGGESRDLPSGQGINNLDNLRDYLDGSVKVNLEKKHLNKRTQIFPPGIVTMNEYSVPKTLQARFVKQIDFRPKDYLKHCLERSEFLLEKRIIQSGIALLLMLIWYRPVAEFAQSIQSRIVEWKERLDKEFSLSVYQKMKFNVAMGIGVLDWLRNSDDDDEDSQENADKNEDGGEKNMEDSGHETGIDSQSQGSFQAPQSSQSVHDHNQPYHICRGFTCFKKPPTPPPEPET

By IC50 is commonly meant the point on the concentration scale where inhibition reaches its midpoint. As for `CCCCC/C=C\C[C@H](O)/C=C/c1cccc(C[C@H](O)CCCCO)n1`, the IC50 at Perilipin-1/ABHD5 is 5.05 µM (active); in [1] it was 5.28 µM (active).

What is called EC50 is the concentration needed to bring the measured effect to its halfway point. On to `CCCSc1nc(O)c(CC)c(=O)n1C(C)CC` (stereo not drawn), for which the EC50 in [2] was > 100 µM (inactive).

As usually defined, the CC50 is the concentration giving 50% cytotoxicity. For `COc1ccc(-c2csc(N(CCCN(C)C)C(=O)c3ccccc3Cl)n2)cc1`, the IC50 in the assay on Vero [3] was > 25 µM (active); in [4], 5.37 µM (active); in the assay on Vero [8] it was 29.5 µM (active). The results for the CC50 with Vero [5], in the assay with Vero [6] and with Vero [7] were 9.54 µM (active), 28.4 µM (active) and 20.2 µM (active), respectively.

For the compound `Oc1ccc(Cc2ccc(O)cc2)cc1`, the IC50 at Large T antigen was 70.1 µM (active).

As usually defined, the AC50 is the concentration at which the activity in the assay is half-maximal. Take `c1ccc(Nc2cccc(Nc3ccccc3)n2)cc1`: the IC50 in assay [9] is listed as > 50 µM (not active). Moreover, the AC50 at CAAX prenyl protease 2 is 13.3 µM (active).

Take `CCC(C)(C(=O)NC1CCCCC1)N(Cc1cccs1)C(=O)c1ccccn1` (stereo not drawn): the EC50 in assay [10] was 0.0599 µM; on Mu-type opioid receptor, > 32 µM (inactive); in [13], under 0.5 µM; in assay [14] it was > 32 µM (inactive). The IC50 in assay [11] was > 32 µM (inactive); in [12] it was > 5 µM (inactive).
